Laboratory results: article PMC7369900 (International Journal of Molecular Sciences, 2020)
Converted amounts (≈) assume the structure as drawn.

Test system: C. albicans Gu5

Q: Which MIC50 does the source give for `CC[C@H](C)[C@H](NC(=O)[C@H](CCCCN)NC(=O)[C@H](CCCCN)NC(=O)[C@H](C)NC(=O)[C@H](CC(C)C)NC(=O)[C@H](C)NC(=O)[C@H](C)NC(=O)[C@H](CC(C)C)NC(=O)[C@H](C)NC(=O)[C@H](CCCCN)NC(=O)[C@H](CC(C)C)NC(=O)[C@H](CC(N)=O)NC(=O)[C@@H](NC(=O)[C@H](CCCCN)NC(=O)CNC(=O)[C@H](CC(C)C)NC(=O)[C@H](CC(C)C)NC(=O)[C@H](Cc1ccc(O)cc1)NC(=O)CNC(=O)[C@H](C)NC(=O)CN1CCN(c2cc3c(cc2F)c(=O)c(C(=O)O)cn3C2CC2)CC1)[C@@H](C)CC)C(=O)N[C@@H](CC(C)C)C(N)=O` [Compound 1, CIP-CH2CO-TP10-NH2] here?
A: The MIC50 was 50 µM (≈ 128 µg/mL).

Q: Which MIC50 does the source give for `CC[C@H](C)[C@H](NC(=O)[C@H](CCCCN)NC(=O)[C@H](CCCCN)NC(=O)[C@H](C)NC(=O)[C@H](CC(C)C)NC(=O)[C@H](C)NC(=O)[C@H](C)NC(=O)[C@H](CC(C)C)NC(=O)[C@H](C)NC(=O)[C@H](CCCCN)NC(=O)[C@H](CC(C)C)NC(=O)[C@H](CC(N)=O)NC(=O)[C@@H](NC(=O)[C@H](CCCCN)NC(=O)CNC(=O)[C@H](CC(C)C)NC(=O)[C@H](CC(C)C)NC(=O)[C@H](Cc1ccc(O)cc1)NC(=O)CNC(=O)[C@H](C)NC(=O)c1cn(C2CC2)c2cc(N3CCNCC3)c(F)cc2c1=O)[C@@H](C)CC)C(=O)N[C@@H](CC(C)C)C(N)=O` [Compound 2, CIP-TP10-NH2] here?
A: The MIC50 was 25 µM (≈ 62.4 µg/mL).

Q: `CC[C@H](C)[C@H](NC(=O)[C@H](CCCCN)NC(=O)[C@H](CCCCN)NC(=O)[C@H](C)NC(=O)[C@H](CC(C)C)NC(=O)[C@H](C)NC(=O)[C@H](C)NC(=O)[C@H](CC(C)C)NC(=O)[C@H](C)NC(=O)[C@H](CCCCN)NC(=O)[C@H](CC(C)C)NC(=O)[C@H](CC(N)=O)NC(=O)[C@@H](NC(=O)[C@H](CCCCN)NC(=O)CNC(=O)[C@H](CC(C)C)NC(=O)[C@H](CC(C)C)NC(=O)[C@H](Cc1ccc(O)cc1)NC(=O)CNC(=O)[C@H](C)NC(=O)CCSSCCC(=O)N1CCN(c2cc3c(cc2F)c(=O)c(C(=O)O)cn3C2CC2)CC1)[C@@H](C)CC)C(=O)N[C@@H](CC(C)C)C(N)=O` [Compound 3, CIP-S-S-TP10-NH2] was tested. Which MIC50 did it give?
A: The MIC50 was 12.5 µM (≈ 33.6 µg/mL).

Q: How did the MIC50 turn out when `CC[C@H](C)[C@H](NC(=O)[C@H](CCCCN)NC(=O)[C@H](CCCCN)NC(=O)[C@H](C)NC(=O)[C@H](CC(C)C)NC(=O)[C@H](C)NC(=O)[C@H](C)NC(=O)[C@H](CC(C)C)NC(=O)[C@H](C)NC(=O)[C@H](CCCCN)NC(=O)[C@H](CC(C)C)NC(=O)[C@H](CC(N)=O)NC(=O)[C@@H](NC(=O)[C@H](CCCCN)NC(=O)CNC(=O)[C@H](CC(C)C)NC(=O)[C@H](CC(C)C)NC(=O)[C@H](Cc1ccc(O)cc1)NC(=O)CNC(=O)[C@H](C)NC(=O)c1cn2c3c(c(N4CCN(C)CC4)c(F)cc3c1=O)OC[C@@H]2C)[C@@H](C)CC)C(=O)N[C@@H](CC(C)C)C(N)=O` [Compound 4, LVX-TP10-NH2] was run?
A: Its MIC50 is 25 µM (≈ 63.1 µg/mL).

Q: For `CC[C@H](C)[C@H](NC(=O)[C@H](CCCCN)NC(=O)[C@H](CCCCN)NC(=O)[C@H](C)NC(=O)[C@H](CC(C)C)NC(=O)[C@H](C)NC(=O)[C@H](C)NC(=O)[C@H](CC(C)C)NC(=O)[C@H](C)NC(=O)[C@H](CCCCN)NC(=O)[C@H](CC(C)C)NC(=O)[C@H](CC(N)=O)NC(=O)[C@@H](NC(=O)[C@H](CCCCN)NC(=O)CNC(=O)[C@H](CC(C)C)NC(=O)[C@H](CC(C)C)NC(=O)[C@H](Cc1ccc(O)cc1)NC(=O)CNC(=O)[C@H](C)NC(=O)[C@@H](N)CSSC[C@H](NC(=O)c1cn2c3c(c(N4CCN(C)CC4)c(F)cc3c1=O)OC[C@@H]2C)C(=O)O)[C@@H](C)CC)C(=O)N[C@@H](CC(C)C)C(N)=O` [Compound 5, LVXC-S-S-CTP10-NH2], which MIC50 is on record?
A: The MIC50 was 12.5 µM (≈ 34.3 µg/mL).

Q: Which MIC50 does the source give for `CC[C@H](C)[C@H](NC(=O)[C@H](CCCCN)NC(=O)[C@H](CCCCN)NC(=O)[C@H](C)NC(=O)[C@H](CC(C)C)NC(=O)[C@H](C)NC(=O)[C@H](C)NC(=O)[C@H](CC(C)C)NC(=O)[C@H](C)NC(=O)[C@H](CCCCN)NC(=O)[C@H](CC(C)C)NC(=O)[C@H](CC(N)=O)NC(=O)[C@@H](NC(=O)[C@H](CCCCN)NC(=O)CNC(=O)[C@H](CC(C)C)NC(=O)[C@H](CC(C)C)NC(=O)[C@H](Cc1ccc(O)cc1)NC(=O)CNC(=O)[C@H](C)NC(=O)[C@@H](N)CSSC[C@H](N)C(=O)N1CCN(c2cc3c(cc2F)c(=O)c(C(=O)O)cn3C2CC2)CC1)[C@@H](C)CC)C(=O)N[C@@H](CC(C)C)C(N)=O` [Compound 6, CIPC-S-S-CTP10-NH2] here?
A: The MIC50 was 25 µM (≈ 67.9 µg/mL).

Q: How did the MIC50 turn out when `CC[C@H](C)[C@H](NC(=O)[C@H](CCCCN)NC(=O)[C@H](CCCCN)NC(=O)[C@H](C)NC(=O)[C@H](CC(C)C)NC(=O)[C@H](C)NC(=O)[C@H](C)NC(=O)[C@H](CC(C)C)NC(=O)[C@H](C)NC(=O)[C@H](CCCCN)NC(=O)[C@H](CC(C)C)NC(=O)[C@H](CC(N)=O)NC(=O)[C@@H](NC(=O)[C@H](CCCCN)NC(=O)CNC(=O)[C@H](CC(C)C)NC(=O)[C@H](CC(C)C)NC(=O)[C@H](Cc1ccc(O)cc1)NC(=O)CNC(=O)[C@H](C)N)[C@@H](C)CC)C(=O)N[C@@H](CC(C)C)C(N)=O` [TP10-NH2, transportan 10, reference compound] was run?
A: Its MIC50 is 100 µM (≈ 218 µg/mL).
